Test results: US4377687A, “Analogs of 1-(2-chloroethyl)-1-nitroso-3-(cycloheyl)-urea substituted by heterocyclic rings or alkyl radicals” (Stiftung Deutsches Krebsforschungszentrum, priority 1978, dated 1983)
Where two headings read alike, the source gives them in different places.

Legend:
Yoshida sarcoma [1] = format: in vivo, rat (male Sprague-Dawley rats); conditions: for tumor-free animals at the end of the experiment (in words) / increase in tumor-free animals (cures) above controls: 120 days; for increase in tumor-free animals (cures) above controls: BCNU, MeCCNU 45, dimethylmorpholine-CNU 45, piperidino-CNU 15, picolyl-3-CNU.HCl 25 mg/kg; for effect on survival time / life expectancy (in words): experiments 1-4, MeCCNU 45, morpholino-CNU 28 (exp. 3 and 5), dimethylmorpholine-CNU 45, piperidino-CNU 15, picolyl-3-CNU 25, picolyl-3-CNU.HCl 25 mg/kg; for chemotherapeutic activity against Yoshida sarcoma in the colon wall (in words): i.p.
Experimental: The chemotherapeutic activity of nitrosoureas was compared in antitumor tests using Yoshida sarcoma ascited cells implanted into the wall of the descending colon in Sprague-Dawley rats.
(§1) Male Sprague-Dawley rats were used in the experiments. Yoshida sarcome in ascites form was maintained in the same strain of rats by serial intraperitoneal injection of 0,5 ml of ascites fluid.
(§2) 3×10^6 cells were injected into the colon wall in a manner known per se. The chemotherapeutic treatment was carried out on the eighth day after implantation of the tumor cells.
(§3) Water-insoluble compounds were dissolved in Cremophor EL/ethanol/physiological saline (20:20:60: vol.%). Water-soluble substances were dissolved in physiological saline. Cremophor EL is a surfactant on the basis of polyethoxylated castor oil. All test compounds were administered introperitoneally. The nitrosoureas were applied at approximately equitoxic doses corresponding to about 80% of the acute LD50 values observed in healthy rats of the same strain over a 28-day observation period.
(§4) Each experiment involved an untreated control group and a varying number of treated groups. Individual survival times were counted as days after tumor inoculation. At the time of death a record of whether an animal was tumor-free or not was made. All animals alive 120 days after tumor inoculation were killed. Animals that according to macroscopic examination had no tumor at the end of the experiment were considered as cured. Since in a number of control rats also no tumors occurred after 120 days the differences in cures between controls and treated animals rather than absolute numbers are reported. Differences in survival were evaluated statistically by individual comparisons between treated rats and controls using a nonparametric log-rank test (Kalbfleisch and Prentice, The statistical analysis of failure time data, Wiley, New York, 1979). Numerical evaluation was performed using a computerized system.

Yoshida sarcoma [2] = format: in vivo, rat (male Sprague-Dawley rats); conditions: i.p.
[3] = Mean animal weight / weight gain after tumor transplantation; format: in vivo, rat (Sprague-Dawley rats); conditions: CP 70 (exp. 1-3), BCNU 25, MeCCNU 45 (exp. 1), picolyl-3-CNU 25, its HCl 25 (exp. 2), morpholino-CNU 28, piperidino-CNU 15 (exp. 3), dimethylmorpholino-CNU 45 mg/kg (exp. 4); for Mean animal weight on day 50: day 50 after tumor transplantation; for Mean animal weight on day 100: day 100 after tumor transplantation
Experimental: as §1, §2, §3
In all treated animals and at all doses tested the mean weight gain was lower than in the controls. Table 3 gives the mean animal weights measured 50 and 100 days after tumor transplantation in experiments 1 to 5.

rat leukemia L 5222 = experiment: Chemotherapeutic activity against rat Leukemia L5222; format: in vivo, rat (BD IX rats); conditions: rat, in vivo
Experimental: Chemotherapeutic activity of methylformylamino-CNU against rat Leukemia L5222 (CNU=chloroethyl-nitroso-urea)
The compound to be tested was solved in Chremophor EL/ethanol/physiological saline and a single dose was administered intraperitoneally into tumor inoculated BD IX rats. The experiment involved an untreated control group and a number of treated groups. The doses used and the effects of the praeterminal treatment are summarized in the following Table from which the cures (animals free of tumor after 120 days) and the increase in life span (ILS, expressed as percentage of survival of the treated test group to the untreated control group) are evident.
Considering the fact that the true measure of the effectiveness of a drug against a neoplastic desease is the ability of the drug to kill the neoplastic cells at dosages that are not toxic to the host animal and that a quantitative evaluation of drug action is usually obtained by using the L1210 leucemia system in mice, it will be realized that in this test the tumor cells are injected into the peritoneal cavity of a mouse which thereafter is treated with the drug to be tested at a very early time after the inoculation of the tumor, i.e. at the first or second day after tumor inoculation. Thus such screening is done under very favourable test conditions for the drug. Contrary thereto the administration of the drug to be tested is performed relatively late in the case of the rat leucemia L5222, i.e. at the 8th day after tumor inoculation. It must, therefore, be taken that at that time tumor cells have colonized the cerebral region, i.e. the meninges, so that cures can only be obtained if the drug has an activity high enough to kill the leucemia cells in the cerebral region in a praeterminal state. Thus by far more severe test conditions are involved when treating rat leucemia L5222 or type Yoshida sarcoma which is a tumor model and which are hard to influence by known drugs.

Yoshida sarcoma [4] = conditions: previous experiments; i.p.; cited from earlier work
[5] = Toxicity in treated tumor-bearing rats (Yoshida sarcoma experiments); format: in vivo, rat (Sprague-Dawley rats)
Experimental: as §1, §2, §3, §4

[6] = Experiment 4, 45 mg/kg, 30 initial animals
[7] = Experiment 3, CP 70, morpholino-CNU 28, piperidino-CNU 15 mg/kg
[8] = Experiment 3, CP 70, morpholino-CNU 28, piperidino-CNU 15 mg/kg, 30 initial animals each
[9] = Experiment 5, CP 70, picolyl-3-CNU.HCl 25, morpholino-CNU 28, piperidino-CNU 15 mg/kg
[10] = Experiment 5, CP 70, picolyl-3-CNU.HCl 25, morpholino-CNU 28, piperidino-CNU 15 mg/kg, 15 initial animals (picolyl-3-CNU.HCl 14)
[11] = Experiment 1, CP 70, BCNU 25, MeCCNU 45 mg/kg
[12] = Experiment 1, CP 70, BCNU 25, MeCCNU 45 mg/kg, initial animals CP 30, BCNU 30, MeCCNU 29
[13] = Experiment 1, i.p. day 8, CP 70, BCNU 25, MeCCNU 45 mg/kg

Q: Which results are given for `CC1CN(NC(=O)N(CCCl)N=O)CC(C)O1` (stereo not shown) [Dimethylmorpholino-CNU]?
A: tumor-free animals at the end of the experiment (in words) (Yoshida sarcoma [1]): remarkable increase in tumor-free animals; increase in tumor-free animals (cures) above controls (Yoshida sarcoma [1]; CP (exp. 1-3)): 20%; % M (median survival time, untreated control = 100) (Yoshida sarcoma [1]; Experiment 4, 45 mg/kg): 374%; D1-120 = difference (%) between tf1-120 of treated and untreated animals (Yoshida sarcoma [1]; Experiment 4, 45 mg/kg): 27%; D120 = difference (%) between tf120 of treated and untreated animals (Yoshida sarcoma [1]; Experiment 4, 45 mg/kg): 20%; tf1-120 (%) (tf120 + animals dying of toxicity) (Yoshida sarcoma [1]; Experiment 4, 45 mg/kg): 47%; tf120 (%) (animals surviving day 120 without tumor) (Yoshida sarcoma [1]; Experiment 4, 45 mg/kg): 40%; tf1-120, No. (tf120 + animals dying of toxicity) (Yoshida sarcoma [1]; [6]): 14; tf120, No. (animals surviving day 120 without tumor) (Yoshida sarcoma [1]; [6]): 12; M = median survival time (Yoshida sarcoma [1]; Experiment 4, i.p. day 8, 45 mg/kg): 71 days; p for improvement of survival time / life expectancy (Yoshida sarcoma [1]; compared with controls, CP (exp. 1-3), dimethylmorpholine-CNU 45 mg/kg): < 0,05; effect on survival time / life expectancy (in words) (Yoshida sarcoma [1]; listed as Dimethylmorpholine-CNU): significantly improved the life expectancy; effect on survival time / life expectancy (in words) (Yoshida sarcoma [1]; listed as dimethylmorpholino-CNU): significant increase in survival time; chemotherapeutic activity against Yoshida sarcoma in the colon wall (in words) (Yoshida sarcoma [1]): active; concentration reached in the distal colon (in words) (Yoshida sarcoma [2]): reached the distal colon at chemotherapeutically effective concentrations; water solubility (in words) (Water solubility): water-soluble; Mean animal weight on day 50 [3]: 250 g; Mean animal weight on day 100 [3]: 250 g

Q: Which results are given for `O=NN(CCCl)C(=O)NN1CCOCC1` [Morpholino-CNU, 1-(2-chloroethyl)-1-nitroso-3-(4-morpholino)-urea]?
A: effectiveness in rat leukemia L 5222 (in words) (rat leukemia L 5222): very good effectiveness; tumor-free animals at the end of the experiment (in words) (Yoshida sarcoma [1]): large number of tumor-free animals; tumor-free animals at the end of the experiment (in words) (Yoshida sarcoma [1]; listed as morpholino-CNU): remarkable increase in tumor-free animals; % M (median survival time, untreated control = 100) (Yoshida sarcoma [1]; [7]): > 686%; D1-120 = difference (%) between tf1-120 of treated and untreated animals (Yoshida sarcoma [1]; [7]): 41%; D120 = difference (%) between tf120 of treated and untreated animals (Yoshida sarcoma [1]; [7]): 34%; tf1-120 (%) (tf120 + animals dying of toxicity) (Yoshida sarcoma [1]; [7]): 70%; tf120 (%) (animals surviving day 120 without tumor) (Yoshida sarcoma [1]; [7]): 63%; tf1-120, No. (tf120 + animals dying of toxicity) (Yoshida sarcoma [1]; [8]): 21; tf120, No. (animals surviving day 120 without tumor) (Yoshida sarcoma [1]; [8]): 19; M = median survival time (Yoshida sarcoma [1]; Experiment 3, i.p. day 8, CP 70, morpholino-CNU 28, piperidino-CNU 15 mg/kg): > 120 days; effect on the survival time on retest (in words) (Yoshida sarcoma [1]; Experiment 5, cyclophosphamide as a standard): significant increasing effect on the survival time; % M (median survival time, untreated control = 100) (Yoshida sarcoma [1]; [9]): 180%; D1-120 = difference (%) between tf1-120 of treated and untreated animals (Yoshida sarcoma [1]; [9]): 0%; D120 = difference (%) between tf120 of treated and untreated animals (Yoshida sarcoma [1]; [9]): 0%; tf1-120, No. (tf120 + animals dying of toxicity) (Yoshida sarcoma [1]; [10]): 0; tf120, No. (animals surviving day 120 without tumor) (Yoshida sarcoma [1]; [10]): 0; M = median survival time (Yoshida sarcoma [1]; Experiment 5, i.p. day 8, CP 70, picolyl-3-CNU.HCl 25, morpholino-CNU 28, piperidino-CNU 15 mg/kg): 18 days; therapeutic results compared with methyl-CCNU / clinically established nitrosoureas (in words) (Yoshida sarcoma [1]; Yoshida sarcoma of the rat implanted in the colon): better therapeutic results than e.g. the compound methyl-CCNU; effect on survival time / life expectancy (in words) (Yoshida sarcoma [1]): improved the survival times significantly; effect on survival time / life expectancy (in words) (Yoshida sarcoma [1]; listed as morpholino-CNU): significant increase in survival time; chemotherapeutic activity against Yoshida sarcoma in the colon wall (in words) (Yoshida sarcoma [1]): clear chemotherapeutic activity; chemotherapeutic activity against Yoshida sarcoma in the colon wall (in words) (Yoshida sarcoma [1]; listed as morpholino-CNU): active; concentration reached in the distal colon (in words) (Yoshida sarcoma [2]): reached the distal colon at chemotherapeutically effective concentrations; water solubility (in words) (Water solubility): water-soluble; water solubility (in words) (Water solubility; listed as Example 2): highly water-soluble; Mean animal weight on day 50 [3]: 270 g; Mean animal weight on day 100 [3]: 270 g

Q: Which “tumor-free animals at the end of the experiment (in words)” value (Yoshida sarcoma [1]) does the source give for `CC1CCC(NC(=O)N(CCCl)N=O)CC1` (stereo not shown) [MeCCNU, 1-(2-chloroethyl)-3-(4-methylcyclohexyl)-1-nitrosourea] here?
A: Its value is “increased the rate of tumor-free animals alive at the end of the experiment”.

Q: What about the “increase in tumor-free animals (cures) above controls” value (Yoshida sarcoma [1]; CP (exp. 1-3)) of the same compound?
A: The value was 8%.

Q: And the “D1-120 = difference (%) between tf1-120 of treated and untreated animals” value (Yoshida sarcoma [1]; [11])?
A: The value was 27%.

Q: What about the “D120 = difference (%) between tf120 of treated and untreated animals” value (Yoshida sarcoma [1]; [11]) of the same compound?
A: Its value is 8%.

Q: And the “tf1-120 (%) (tf120 + animals dying of toxicity)” value (Yoshida sarcoma [1]; [11])?
A: Its value is 52%.

Q: And the “tf120 (%) (animals surviving day 120 without tumor)” value (Yoshida sarcoma [1]; [11])?
A: Its value is 33%.

Q: And the “tf1-120, No. (tf120 + animals dying of toxicity)” value (Yoshida sarcoma [1]; [12])?
A: Its value is 15.

Q: What about the “tf120, No. (animals surviving day 120 without tumor)” value (Yoshida sarcoma [1]; [12]) of the same compound?
A: Its value is 10.

Q: What about the “% M (median survival time, untreated control = 100)” value (Yoshida sarcoma [1]; [13]) of the same compound?
A: Its value is 130%.

Q: And the “M = median survival time” value (Yoshida sarcoma [1]; [13])?
A: Its value is 60 days.

Q: What about the “activity against Yoshida sarcoma, shown previously (in words)” value (Yoshida sarcoma [4]) of the same compound?
A: Its value is “active”.

Q: What about the “Mean animal weight on day 50” value [3] of the same compound?
A: The value was 280 g.

Q: What about the “Mean animal weight on day 100” value [3] of the same compound?
A: Its value is 300 g.

Q: What about the “toxicity (in words)” value ([5]; at the doses tested) of the same compound?
A: Its value is “obviously toxic”.

Q: What about the mortality at 2880 h ([5]; rat, in vivo, ip, 45 mg/kg, read-out: animals died without a tumor before day 120) of the same compound?
A: Its mortality at 2880 h is 19%.
